# Test results: patent US20220251036A1, “DIFLUOROHALOALLYLAMINE SULFONE DERIVATIVE INHIBITORS OF LYSYL OXIDASES, METHODS OF PREPARATION, AND USES THEREOF” (PHARMAXIS LTD., priority 2019, published 2022)
# Key:
# [1] = target: T1, Human recombinant SSAO/VAP-1 (Homo sapiens, UniProt Q16853); experiment: SSAO/VAP-1 inhibition; type: biochemical; details: 30 min incubation at 37° C, benzylamine 600 μM
# T1 construct: residues 34-763 of human SSAO/VAP-1; TEV cleavage site (N); made in house
# T1 sequence (Q16853 34-763): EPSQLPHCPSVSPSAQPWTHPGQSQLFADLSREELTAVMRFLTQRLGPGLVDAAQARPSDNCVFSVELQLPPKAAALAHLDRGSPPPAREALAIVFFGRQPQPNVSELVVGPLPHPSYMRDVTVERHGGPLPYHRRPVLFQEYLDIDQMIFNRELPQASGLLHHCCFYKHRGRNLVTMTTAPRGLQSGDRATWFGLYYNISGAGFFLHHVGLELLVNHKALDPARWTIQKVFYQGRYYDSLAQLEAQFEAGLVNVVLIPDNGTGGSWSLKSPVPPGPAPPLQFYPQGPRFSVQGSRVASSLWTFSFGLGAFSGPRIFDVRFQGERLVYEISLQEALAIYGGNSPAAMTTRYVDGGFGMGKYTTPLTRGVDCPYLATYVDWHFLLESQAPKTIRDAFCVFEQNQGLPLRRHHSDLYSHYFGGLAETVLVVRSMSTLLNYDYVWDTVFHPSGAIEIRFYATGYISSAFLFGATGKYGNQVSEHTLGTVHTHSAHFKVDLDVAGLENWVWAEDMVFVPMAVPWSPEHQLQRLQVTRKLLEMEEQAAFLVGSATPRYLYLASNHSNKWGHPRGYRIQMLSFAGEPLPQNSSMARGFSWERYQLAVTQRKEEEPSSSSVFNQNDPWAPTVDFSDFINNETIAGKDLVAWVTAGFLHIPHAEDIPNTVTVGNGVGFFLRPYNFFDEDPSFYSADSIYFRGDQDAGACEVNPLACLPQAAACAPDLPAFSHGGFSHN
# Experimental: Human recombinant SSAO/VAP-1 amine oxidase activity was determined using the coupled colorimetric method as described for monoamine oxidase, copper-containing amine oxidases and related enzymes (Holt A. and Palcic M., A peroxidase-coupled continuous absorbance plate-reader assay for flavin monoamine oxidases, copper-containing amine oxidases and related enzymes. Nat Protoc 2006; 1: 2498-2505). Briefly, a cloned cDNA template corresponding to residues 34-763 of human SSAO/VAP-1, and incorporating a mouse Ig kappa (κ) signal sequence, N-terminal flag epitope tag and tobacco etch virus (TEV) cleavage site, was assembled in a mammalian expression vector (pLO-CMV) by Geneart AG. This vector containing human SSAO/VAP-1 residues was transfected into CHO-K1 glycosylation mutant cell line, Lee 8. A clone stably expressing human SSAO/VAP-1 was isolated and cultured in large scale. Active human SSAO/VAP-1 was purified and recovered using immunoaffinity chromatography. This was used as the source for SSAO/VAP-1 activity. A high-throughput fluorescent assay was developed using either 96 or 384 well format. Briefly, in a standard 96 well plate assay 50 μL of purified human SSAO/VAP-1 (0.25 μg/mL) in 0.1 M sodium phophate buffer (pH 7.4) was added into each well. Test compounds were dissolved in DMSO and tested in a Concentration Response Curve (CRC) with 4-11 data points, typically in the micromolar or nanomolar range after incubation with human SSAO/VAP-1 for 30 min at 37° C. After 30 min incubation, 50 μL of the reaction mixture containing 600 μM benzylamine (Sigma Aldrich), 120 μM Amplex Red (Sigma Aldrich) and 1.5 U/mL horseradish peroxidase (Sigma Aldrich) prepared in 0.1 M sodium phosphate buffer (pH 7.4) were added to the corresponding well. The fluorescence unit (RFU) was read every 2.5 min for 30 min at 37° C. excitation 565 nm and emission 590 (Optima; BMG labtech). The slope of the kinetics for each well was calculated using MARS data analysis software (BMG labtech) and this value was used to deduce the IC50 value (Dotmatics).
# recombinant human MAO-A = target: T2, recombinant human MAO-A (Homo sapiens, UniProt P21397); experiment: MAO-A inhibition; type: biochemical; details: 2 hours incubation, tyramine 100 μM
# T2 construct: purchased Sigma Aldrich
# T2 sequence (P21397 1-527): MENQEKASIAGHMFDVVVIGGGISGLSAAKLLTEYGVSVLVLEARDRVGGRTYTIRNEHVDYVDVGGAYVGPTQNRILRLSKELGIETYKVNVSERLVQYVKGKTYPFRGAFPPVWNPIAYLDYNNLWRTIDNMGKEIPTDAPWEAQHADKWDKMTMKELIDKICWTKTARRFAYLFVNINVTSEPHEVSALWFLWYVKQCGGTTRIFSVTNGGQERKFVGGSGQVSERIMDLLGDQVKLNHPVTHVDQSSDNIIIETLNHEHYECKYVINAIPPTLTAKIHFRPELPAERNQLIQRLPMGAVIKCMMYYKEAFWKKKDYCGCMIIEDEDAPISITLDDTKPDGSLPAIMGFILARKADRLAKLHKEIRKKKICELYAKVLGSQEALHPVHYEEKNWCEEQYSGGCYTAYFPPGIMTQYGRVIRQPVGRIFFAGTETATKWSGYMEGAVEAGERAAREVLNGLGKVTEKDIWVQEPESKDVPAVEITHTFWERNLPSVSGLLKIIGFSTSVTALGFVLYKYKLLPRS
# Experimental: The specificity of the compounds of this invention was tested by determining their ability to inhibit MAO-A activity in vitro, using recombinant human MAO-A (0.003 mg/mL; Sigma Aldrich). The assay was performed in a similar way as for human SSAO/VAP-1 (Example 8) except, the incubation with the test compounds was extended to 2 hours, and the substrate tyramine was used at 100 μM in place of benzylamine.
SMILES,IC50 [1],IC50 (recombinant human MAO-A)
"N#CCCN [BAPN, β-aminopropionitrile, reference compound]",> 30 µM,> 30 µM
"CNc1ccccc1S(=O)(=O)C(F)(F)/C(F)=C/CN [Compound 4, (Z)-2-((4-amino-1,1,2-trifluorobut-2-en-yl)sulfony1)-N-methylaniline]",18 µM,26.7 µM
"Cc1ccccc1S(=O)(=O)C(F)(F)/C(F)=C/CN [Compound 5, (Z)-3,4,4-trifluoro-4-(o-tolylsulfonyl)but-2-en-1-amine]",> 30 µM,20.2 µM
"Cc1ccc(S(=O)(=O)C(F)(F)/C(F)=C/CN)cc1 [Compound 6, (Z)-3,4,4-trifluoro-4-tosylbut-2-en-1-amine]",> 30 µM,> 30 µM
"NC/C=C(\F)C(F)(F)S(=O)(=O)Cc1ccccc1 [Compound 8, (Z)-4-(benzylsulfony1)-3,4,4-trifluorobut-2-en-1-amine]",> 30 µM,> 30 µM
"CS(=O)(=O)c1ccc(COc2ccccc2S(=O)(=O)C(F)(F)/C(F)=C/CN)cc1 [Compound 10, (Z)-3,4,4-trifluoro-4-((2-((4-(methylsulfonyl)benzyl)oxy)phenyl)sulfonyl) but-2-en-1-amine]",14.7 µM,4.7 µM
"NC/C=C(\F)C(F)(F)S(=O)(=O)c1cccs1 [Compound 14, (Z)-3,4,4-trifluoro-4-(thiophen-2-ylsulfonyl)but-2-en-1-amine]",26.6 µM,
